Format in all cases: functional, cell-based
The subject of test [1] is Caco-2. The experiment in a line: Cytotoxicity against human Caco-2 cells at 100 uM after 72 hrs by MTT assay. For orientation: Tetrazolium dyes change colour on reduction, which living cells bring about.
In test [2] the test system is Caco-2. Briefly: Cytotoxicity against human Caco-2 cells at 0.1 to 100 uM after 72 hrs by MTT assay.
The subject of another test is MIA PaCa-2. Briefly: Cytotoxicity against human MIAPaCa2 cells at 0.1 to 100 uM after 72 hrs by MTT assay.
For a further test, the system named is HEp-2. Briefly: Cytotoxicity against human Hep2 cells at 0.1 to 100 uM after 72 hrs by MTT assay.
In the next test the test system is HeLa. Briefly: Cytotoxicity against human HeLa cells at 0.1 to 100 uM after 72 hrs by MTT assay.
Another test relates to HT-29. The experiment in a line: Cytotoxicity against human HT-29 cells at 0.1 to 100 uM after 72 hrs by MTT assay.

Calls of active or inactive are those of the source. No cut-off for these calls is given here.

On to `Cc1nc2ccccc2c2ccc(NC(=O)NCCCCCCNC(=O)Nc3ccc4c(c3)c(C)nc3ccccc34)cc12`, for which, in the test on Caco-2 [1], the result was inactive.

Regarding `Cc1nc2ccccc2c2ccc(NC(=O)NCCNC(=O)Nc3ccc4c(c3)c(C)nc3ccccc34)cc12`, the result in the test on Caco-2 [1] was inactive.

For the molecule `Cc1nc2ccccc2c2ccc(NC(=O)NCCCCCCCCCNC(=O)Nc3ccc4c(c3)c(C)nc3ccccc34)cc12`, the result with Caco-2 [1], with Caco-2 [2], in the test with MIA PaCa-2, in the test with HEp-2, in the test on HeLa and in the test with HT-29 was inactive.
